Measured values as given in the supplement of paper PMC11061612.

Tests used:
Test in all cases: Bliss excess, mean over the matrix (fraction); higher = more synergy
[1] = system: CAL-51 (Breast Carcinoma)
In short: (§1)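 Cell lines in DMEM/F12 or RPMI with 10% FBS were plated in 1536-well plates, held 24 hours at 37°C, 5% CO2, then given two-drug dose matrices for 72 hours (DMSO typically 0.2%). Viability was read by CellTiter-Glo 2.0 luminescence and scaled as inhibition from 0 (vehicle wells) to 1 (blank wells). Combination Emax is the second-highest inhibition in the matrix; Bliss excess is observed combination effect minus expected EA + EB − EA·EB, EA and EB being single-agent effects.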

[2] = system: CAL-54 (Kidney Carcinoma)
In short: as §1

[3] = system: EN (Endometrial Carcinoma)
In short: as §1

[4] = system: HCC-15 (Squamous Cell Lung Carcinoma)
In short: as §1

HMV-II (Melanoma) = system: HMV-II (Melanoma)
In short: as §1

[5] = system: HO-1-u-1 (Oral Cavity Carcinoma)
In short: as §1

[6] = system: KARPAS-231 (B-Cell Non-Hodgkin's Lymphoma)
In short: as §1

[7] = system: LB771-HNC (Head and Neck Carcinoma)
In short: as §1

[8] = system: LoVo (Colorectal Carcinoma)
In short: as §1

Mewo (Melanoma) = system: Mewo (Melanoma)
In short: as §1

NCI-H2461 (Mesothelioma) = system: NCI-H2461 (Mesothelioma)
In short: as §1

NCI-H28 (Mesothelioma) = system: NCI-H28 (Mesothelioma)
In short: as §1

[9] = system: OVCAR-8 (Ovarian Carcinoma)
In short: as §1

[10] = system: PCI-30 (Head and Neck Carcinoma)
In short: as §1

[11] = system: RPMI-6666 (Non-Cancerous)
In short: as §1

SH-4 (Melanoma) = system: SH-4 (Melanoma)
In short: as §1

[12] = system: SK-OV-3 (Ovarian Carcinoma)
In short: as §1

[13] = system: SU-DHL-6 (B-Cell Non-Hodgkin's Lymphoma)
In short: as §1

[14] = system: SW1116 (Colorectal Carcinoma)
In short: as §1

[15] = system: UMC-11 (Other Solid Carcinomas)
In short: as §1

| Structure (SMILES) | Bliss excess [1] | Bliss excess [2] | Bliss excess [3] | Bliss excess [4] | Bliss excess (HMV-II (Melanoma)) | Bliss excess [5] | Bliss excess [6] | Bliss excess [7] | Bliss excess [8] | Bliss excess (Mewo (Melanoma)) | Bliss excess (NCI-H2461 (Mesothelioma)) | Bliss excess (NCI-H28 (Mesothelioma)) | Bliss excess [9] | Bliss excess [10] | Bliss excess [11] | Bliss excess (SH-4 (Melanoma)) | Bliss excess [12] | Bliss excess [13] | Bliss excess [14] | Bliss excess [15] |
| --- | --- | --- | --- | --- | --- | --- | --- | --- | --- | --- | --- | --- | --- | --- | --- | --- | --- | --- | --- | --- |
| Cc1nc(Nc2ncc(C(=O)Nc3c(C)cccc3Cl)s2)cc(N2CCN(CCO)CC2)n1 [Dasatinib] + CC(=O)Nc1cccc(-n2c(=O)n(C3CC3)c(=O)c3c(Nc4ccc(I)cc4F)n(C)c(=O)c(C)c32)c1 [Trametinib] (first compound max 2 µM, 7x7, partner max 1 µM) | -0.017 | -0.0031 | -0.0056 | 0.193 | -0.136 | -0.0219 | -0.0267 | -0.0363 | 0.104 | 0.0254 | -0.0384 | -0.0021 | 0.0396 | -0.0727 | 0.0193 | -0.0721 | -0.075 | 0.0272 | 0.0459 | -0.0733 |
| C=CCn1c(=O)c2cnc(Nc3ccc(N4CCN(C)CC4)cc3)nc2n1-c1cccc(C(C)(C)O)n1 [AZD1775] + C1CN(CCC1(C(=O)N[C@@H](CCO)C2=CC=C(C=C2)Cl)N)C3=NC=NC4=C3C=CN4 [Capivasertib] (first compound max 3 µM, partner max 3 µM) | -0.0188 | -0.0622 | -0.0623 | -0.0331 | -0.0774 | 0.037 | 0.0311 | -0.0581 | 0.0281 | -0.0433 | -0.0587 | -0.0725 | -0.0167 | -0.0677 | -0.0148 | -0.0713 | -0.0692 | 0.0012 | -0.0561 | 0.0101 |
| Cc1c2c(nn1C)CSCc1cc(n(C)n1)CSc1cc(c3ccccc3c1)OCCCc1c(C(=O)O)n(C)c3c-2c(Cl)ccc13 [AZD5991] + CC1(C)CCC(CN2CCN(c3ccc(C(=O)NS(=O)(=O)c4ccc(NCC5CCOCC5)c([N+](=O)[O-])c4)c(Oc4cnc5[nH]ccc5c4)c3)CC2)=C(c2ccc(Cl)cc2)C1 [Venetoclax] (first compound max 1 µM, 7x7, partner max 1 µM) | 0.0481 | -0.0151 | -0.0236 | -0.0271 | -0.0257 | -0.0046 | -0.0232 | 0.0035 | -0.0217 | 0.0377 | -0.0237 | -0.0812 | -0.0157 | -0.0376 | 0.233 | 0.0457 | -0.0153 | 0.0744 | -0.0215 | 0.0749 |
| CN(CCO)CC[C@H](CSc1ccccc1)Nc1ccc(S(=O)(=O)NC(=O)c2ccc(N3CCC([C@@H](O)c4ccccc4-c4ccc(Cl)cc4)CC3)cc2)cc1S(=O)(=O)C(F)(F)F [AZD4320] + C=CCn1c(=O)c2cnc(Nc3ccc(N4CCN(C)CC4)cc3)nc2n1-c1cccc(C(C)(C)O)n1 [AZD1775] (first compound max 1 µM, partner max 1 µM) | -0.0122 | 0.146 | -0.0337 | 0.0202 | 0.0496 | 0.0066 | 0.117 | -0.0049 | 0.0093 | 0.0306 | 0.016 | 0.0115 | -0.012 | 0.0013 | 0.0219 | 0.0103 | 0.0069 | 0.14 | 0.0003 | -0.0122 |
| CC(=O)c1c(C)c2cnc(Nc3ccc(N4CCNCC4)cn3)nc2n(C2CCCC2)c1=O [Palbociclib] + Cc1c2c(nn1C)CSCc1cc(n(C)n1)CSc1cc(c3ccccc3c1)OCCCc1c(C(=O)O)n(C)c3c-2c(Cl)ccc13 [AZD5991] (first compound max 10 µM, 7x7, partner max 1 µM) | 0.0124 | -0.0781 | -0.0544 | -0.0501 | -0.0185 | -0.0069 | -0.0835 | -0.0622 | -0.0584 | -0.0291 | -0.056 | -0.0319 | -0.0281 | -0.0224 | -0.0533 | -0.0267 | -0.0569 | 0.0709 | -0.025 | -0.0475 |
| CN(CCO)CC[C@H](CSc1ccccc1)Nc1ccc(S(=O)(=O)NC(=O)c2ccc(N3CCC([C@@H](O)c4ccccc4-c4ccc(Cl)cc4)CC3)cc2)cc1S(=O)(=O)C(F)(F)F [AZD4320] + C1CN(CCC1(C(=O)N[C@@H](CCO)C2=CC=C(C=C2)Cl)N)C3=NC=NC4=C3C=CN4 [Capivasertib] (first compound max 1 µM, 7x7, partner max 3 µM) | -0.0089 | -0.0694 | -0.0343 | -0.0082 | -0.0431 | -0.0621 | 0.0407 | -0.0148 | -0.071 | -0.0262 | -0.0564 | -0.0821 | -0.0468 | -0.0402 | 0.0083 | -0.0462 | -0.0663 | 0.0292 | -0.0612 | -0.0908 |
| COc1cccc(OCCCN)c1-c1cc(Nc2cnc(C#N)cn2)n[nH]1 [Prexasertib] + C[C@@H]1COCCN1C2=NC(=NC(=C2)C3(CC3)[S@](=N)(=O)C)C4=C5C=CNC5=NC=C4 [AZD6738] (first compound max 1 µM, 7x7, partner max 10 µM) | -0.0078 | -0.0883 | -0.0416 | 0.0058 | 0.0359 | -0.0013 | -0.0498 | -0.0024 | -0.0296 | -0.0403 | -0.0344 | -0.0062 | -0.0151 | 0.003 | -0.0467 | -0.0786 | -0.0412 | -0.0158 | 0.0637 | -0.0213 |
| CC1(C)CCC(CN2CCN(c3ccc(C(=O)NS(=O)(=O)c4ccc(NCC5CCOCC5)c([N+](=O)[O-])c4)c(Oc4cnc5[nH]ccc5c4)c3)CC2)=C(c2ccc(Cl)cc2)C1 [Venetoclax] + C1CN(CCC1(C(=O)N[C@@H](CCO)C2=CC=C(C=C2)Cl)N)C3=NC=NC4=C3C=CN4 [Capivasertib] (first compound max 1 µM, 7x7, partner max 3 µM) | -0.0879 | -0.027 | -0.0656 | -0.0286 | -0.0444 | -0.052 | -0.182 | -0.008 | -0.0419 | -0.0093 | -0.0184 | -0.0848 | -0.0504 | -0.0216 | 0.0217 | -0.0592 | -0.0577 | 0.0537 | -0.0491 | -0.038 |
| CCc1c2c(nc3ccc(O)cc13)-c1cc3c(c(=O)n1C2)COC(=O)[C@]3(O)CC [SN-38] + CN(C)CCCOc1ccc(-c2ccc3ncc4c(c3c2)n(C2CCOCC2)c(=O)n4C)cn1 [AZD0156] (first compound max 0.3 µM, 7x7, partner max 1 µM) | 0.0611 | 0.005 | -0.0346 | 0.16 | -0.0108 | 0.0393 | 0.0202 | -0.031 | 0.0135 | -0.0722 | -0.0236 | -0.0839 | 0.0058 | -0.0044 | -0.0196 | -0.0552 | -0.0132 | -0.0694 | -0.0108 | 0.0224 |
| Cc1c2c(nn1C)CSCc1cc(n(C)n1)CSc1cc(c3ccccc3c1)OCCCc1c(C(=O)O)n(C)c3c-2c(Cl)ccc13 [AZD5991] + C=CCn1c(=O)c2cnc(Nc3ccc(N4CCN(C)CC4)cc3)nc2n1-c1cccc(C(C)(C)O)n1 [AZD1775] (first compound max 1 µM, partner max 1 µM) | 0.045 | -0.0522 | -0.0038 | 0.001 | 0.0001 | 0.0396 | 0.0195 | 0.0271 | -0.064 | -0.0347 | 0.0081 | -0.0023 | -0.0075 | 0.0371 | 0.0122 | 0.101 | 0.0698 | -0.0152 | 0.005 | -0.0732 |
| CCN(CCO)CCCOc1ccc2c(Nc3cc(CC(=O)Nc4cccc(F)c4)[nH]n3)ncnc2c1 [AZD2811] + C[C@@H]1COCCN1C2=NC(=NC(=C2)C3(CC3)[S@](=N)(=O)C)C4=C5C=CNC5=NC=C4 [AZD6738] (first compound max 1 µM, 7x7, partner max 10 µM) | 0.0075 | -0.0383 | -0.0866 | -0.0238 | -0.0395 | -0.023 | 0.0064 | -0.0492 | -0.104 | -0.0399 | -0.0728 | -0.0554 | -0.0192 | -0.0516 | -0.0653 | -0.0474 | -0.117 | 0.0131 | -0.0234 | -0.0488 |
| Cc1cc2ncnn2cc1Nc1ncc2c(n1)n(C1CCOCC1)c(=O)n2C [AZD7648] + C=CCn1c(=O)c2cnc(Nc3ccc(N4CCN(C)CC4)cc3)nc2n1-c1cccc(C(C)(C)O)n1 [AZD1775] (first compound max 10 µM, partner max 1 µM) | -0.05 | 0.016 | -0.0608 | 0.0339 | -0.0714 | 0.0946 | -0.0309 | -0.0078 | -0.0658 | 0.0455 | -0.0524 | 0.0291 | 0.0102 | 0.0419 | -0.0687 | 0.0332 | -0.0663 | -0.0816 | -0.0172 | -0.0202 |
| COc1nnc2ccc(N3CCC(c4ccc(OCCN5CCN(C)C(=O)[C@H]5C)cc4)CC3)nn12 [AZD5153] + CC1(C)CCC(CN2CCN(c3ccc(C(=O)NS(=O)(=O)c4ccc(NCC5CCOCC5)c([N+](=O)[O-])c4)c(Oc4cnc5[nH]ccc5c4)c3)CC2)=C(c2ccc(Cl)cc2)C1 [Venetoclax] (first compound max 1 µM, 7x7, partner max 1 µM) | -0.0513 | -0.0374 | -0.0567 | -0.0255 | -0.0695 | -0.0352 | -0.135 | -0.0704 | -0.0378 | -0.0605 | -0.0438 | 0.0174 | 0.0035 | -0.0894 | -0.0153 | -0.124 | -0.0371 | 0.0401 | -0.036 | 0.0234 |
| COc1nnc2ccc(N3CCC(c4ccc(OCCN5CCN(C)C(=O)[C@H]5C)cc4)CC3)nn12 [AZD5153] + CCN(CCO)CCCOc1ccc2c(Nc3cc(CC(=O)Nc4cccc(F)c4)[nH]n3)ncnc2c1 [AZD2811] (first compound max 1 µM, 7x7, partner max 1 µM) | -0.0038 | -0.0225 | -0.0918 | -0.0646 | -0.0481 | -0.121 | -0.203 | -0.0006 | -0.0623 | -0.0578 | -0.0421 | -0.0415 | -0.0131 | -0.0568 | -0.0656 | -0.0194 | -0.0703 | -0.0215 | -0.0632 | -0.123 |
